Reference: PubChem BioAssay AID2060895 (Molecular Pharmacology Branch, DTP, NCI, 2025)
Where “and” joins values, the source holds several entries; their conditions need not be identical. Equal entries are not always repeated.

System: PDC 899932-113-R3-J6 complex spheroid viability
Experiment: Anticancer human tumor 899932-113-R3-J6-PDC patient-derived melanoma cell line growth inhibition [RAS]
Details: for viability, T/C: stronger effect = lower value
Text: RAS pathway inhibitors in Combinations in Complex Spheroids
A high-throughput screen of multi-cell type tumor spheroids was designed to identify active combinations of RAS pathway inhibitors and targeted small molecules. Complex spheroids include a stromal component modeled by human endothelial cells (HUVEC) and fibroblasts modeled by human mesenchymal stem cells (MSCs). The concentration ranges selected for each drug and investigational agent were based upon clinically achievable concentrations if the clinical Cmax of the agent was known.
Compounds. The drugs and investigational agents: abemaciclib (NSC768073), cobimetinib (NSC768068), divarasib (GDC6063, NSC841802), docetaxel (NSC628503), GDC-1971 (RLY-1971, NSC841576), gemcitabine (NSC613327), inavolisib (NSC800729), ipatasertib (NSC767898), KB-0742 (NSC834161), MRTX-1133 (NSC836407), osimertinib (NSC779217), RMC-4630 (NSC839698), RMC-6236 (NSC851965), RMC-6291 (NSC852671), Ro-3306 (NSC812927), sapanisertib (NSC764658), SN-38 (NSC673596), staurosporine (NSC755774), SY5609 (NSC837396), and tovorafenib (DAY101, NSC766906), were obtained from the National Cancer Institute (NCI) Developmental Therapeutics Program Chemical Repository. The FDA-approved anticancer drug set is available from the NCI Developmental Therapeutics Program. […] The stock solutions were prepared in dimethyl sulfoxide (DMSO, Sigma-Aldrich, St. Louis, MO, cat. D2650) at 800-fold the tested concentration and stored at -70 degrees C prior to their use. All drugs and investigational agents were tested over a range starting from a high concentration at or near the clinical Cmax and decreasing in half-log increments. If the clinical Cmax for an agent had not been determined, the highest concentration tested was 10 microM.
Cell Culture. All cells were maintained in an incubator at 37 degrees C and 5% CO2 with 95% humidity. The PDC lines were cultured according to standard operating procedures established by the NCI PDMR. All PDCs were thawed and cultured in Matrigel-coated flasks prepared with a working solution of 1X Ham's F-12 nutrient mix, without supplementation (Invitrogen, Waltham, MA, cat. 11765054), 100 U/mL penicillin-streptomycin (Invitrogen, cat. 15140122), and 2.5% Matrigel (Corning Inc., Corning, NY, cat. 354248) for the first three passages. The 362531-283-R-J2-PDC and 782815-120-R-J1-PDC lines were cultured in 6C/Colon 1B media, which includes advanced DMEM/F-12 (Thermo Fisher Scientific, cat. 12634028), 10 mM HEPES (Thermo Fisher Scientific, cat. 15630080), 1X GlutaMAX supplement (Thermo Fisher Scientific, cat. 35050061), 0.1 mg/mL primocin (InvivoGen, San Diego, CA, cat. ant-pm-2), 10% defined fetal bovine serum, heat inactivated (HyClone Laboratories Inc., Logan, UT, cat. SH30070.03HI), 50% L-WRN conditioned media (ATCC, cat. CRL-3276), 1.25 mM N-Acetyl-L-cysteine (Sigma-Aldrich, cat. A9165), 10 mM nicotinamide (Sigma-Aldrich, cat. N0636), 1X B-27 supplement (Thermo Fisher Scientific, cat. 17504044), 1X N-2 supplement (Thermo Fisher Scientific, cat. 17502048), 50 ng/mL human EGF (Thermo Fisher Scientific, cat. PHG0311), and 10 microM Y-27632 dihydrochloride (Tocris Bioscience, cat. 1254). The K12877-001-R-J1-PDC line was cultured in 6I media, which includes all 6C/Colon 1B media plus 10 ng/mL human FGF-10 (PeproTech, cat. 100-26), 1 ng/mL human FGF-2 (PeproTech, cat. 100-18B), 1 µM prostaglandin E2 (Tocris Bioscience, cat. 2296), […] hydrocortisone (Sigma-Aldrich, cat. H4001), and […] bovine insulin (Sigma-Aldrich, cat. I6634). The K86415-001-R-J1-PDC line was cultured in 6D media, which includes all 6C/Colon 1B media components minus the L-WRN conditioned media. The 485176-168-R4-J1-PDC was cultured in PANC media, which includes all 6C/Colon 1B media plus 100 ng/mL human FGF-10 (PeproTech, cat. 100-26), 500 nM SB-431542 (Selleckchem, cat. S1067), and 10 nM gastrin (Tocris Bioscience, cat. 3006). […]

[1] = compound alone, run of 09/09/2024
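Throughout, for viability, T/C: spheroids exposed to agents for seven days before readout; 100% = DMSO vehicle control wells.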

| SMILES | viability, T/C (compound 0.0316 µM) | viability, T/C (compound 0.1 µM) | viability, T/C (compound 0.316 µM) | viability, T/C (compound 1 µM) | viability, T/C (compound 3.16 µM) | viability, T/C (compound 10 µM) | IC50 [1] [µM] | viability, T/C (compound 0.00316 µM) | viability, T/C (compound 0.01 µM) | IC50 (curve of compound) | viability, T/C (compound 0.000316 µM) | viability, T/C (compound 0.001 µM) | viability, T/C (compound 0.000949 µM) | viability, T/C (compound 0.003 µM) | viability, T/C (compound 0.00949 µM) | viability, T/C (compound 0.03 µM) | viability, T/C (compound 0.0949 µM) | viability, T/C (compound 0.3 µM) |
| --- | --- | --- | --- | --- | --- | --- | --- | --- | --- | --- | --- | --- | --- | --- | --- | --- | --- | --- |
| C#Cc1c(F)ccc2cc(O)cc(-c3ncc4c(N5CC6CCC(C5)N6)nc(OCC56CCCN5CC(F)C6)nc4c3F)c12 (centres undefined) | 108% [middle of 8 runs] | 109% [middle of 8 runs] | 107% [middle of 8 runs] | 112% [middle of 8 runs] | 111% [middle of 8 runs] | 110% [middle of 8 runs] | > 10 | – | – | – | – | – | – | – | – | – | – | – |
| C=CC(=O)N1CCN(c2nc(OCC3CCCN3C)nc3c(F)c(-c4nc(N)cc(C)c4C(F)(F)F)c(Cl)cc23)C(C)C1 (centres undefined) | 108% [middle of 12 runs] | 107% [middle of 12 runs] | 105% [middle of 12 runs] | 103% [middle of 12 runs] | – | – | > 1 | 109% [middle of 12 runs] | 108% [middle of 12 runs] | > 1 µM | – | – | – | – | – | – | – | – |
| C=CC(=O)Nc1cc(Nc2nccc(-c3cn(C)c4ccccc34)n2)c(OC)cc1N(C)CCN(C)C | 101% [middle of 4 runs] | 104% and 102% (2×) and 101% | 106% [middle of 4 runs] | 100% [middle of 4 runs] | – | – | – | 109% [middle of 4 runs] | 98.4% [middle of 4 runs] | > 1 µM | – | – | – | – | – | – | – | – |
| CC(C)NCC(C(=O)N1CCN(c2ncnc3c2C(C)CC3O)CC1)c1ccc(Cl)cc1 (centres undefined) | 110% [middle of 4 runs] | 99.1% [middle of 4 runs] | 97.7% [middle of 4 runs] | 84.7% [middle of 4 runs] | 62.5% [middle of 4 runs] | 39.9% [middle of 4 runs] | – | – | – | 5.72 µM [middle of 4 runs] | – | – | – | – | – | – | – | – |
| CC(C)n1nc(-c2ccc3oc(N)nc3c2)c2c(N)ncnc21 | 71.8% [middle of 4 runs] | – | – | – | – | – | – | 116% [middle of 4 runs] | – | > 0.1 µM and 0.076 µM and 0.0693 µM | 107% [middle of 4 runs] | 102% [middle of 4 runs] | – | – | – | – | – | – |
| CC(Nc1ccc2c(c1)OCCn1cc(N3C(=O)OCC3C(F)F)nc1-2)C(N)=O (centres undefined) | 104% [middle of 4 runs] | 71.2% [middle of 4 runs] | 63.9% [middle of 4 runs] | 58.4% [middle of 4 runs] | 46.1% (2×) and 45.7% and 46% | 35.1% [middle of 4 runs] | – | – | – | 1.74 µM [middle of 4 runs] | – | – | – | – | – | – | – | – |
| CC1(C)CCC(Nc2ncc(C(F)(F)F)c(-c3c[nH]c4c(P(C)(C)=O)c(C#N)ccc34)n2)CN1 (centres undefined) | – | – | – | – | – | – | – | – | – | 15 nM [middle of 4 runs] | – | – | 98.3% [middle of 4 runs] | 75.5% [middle of 4 runs] | 53.9% [middle of 4 runs] | 44.4% [middle of 4 runs] | 18.4% [middle of 4 runs] | 12.9% [middle of 4 runs] |
| CC1(O)CCCC1n1c(=O)c(C(F)F)cc2cnc(NC3CCN(S(C)(=O)=O)CC3)nc21 (centres undefined) | 100% [middle of 4 runs] | 83.3% [middle of 4 runs] | 69.4% [middle of 4 runs] | 65.9% [middle of 4 runs] | 58.3% [middle of 4 runs] | 21.9% [middle of 4 runs] | – | – | – | – | – | – | – | – | – | – | – | – |
